Measurements published in patent US20230066946A1, “1,5-DIPHENYLPYRAZOLYL-3-OXYALKYL ACIDS AND 1-PHENYL-5-THIENYLPYRAZOLYL-3-OXYALKYL ACIDS AND THE USE THEREOF FOR CONTROL OF UNWANTED PLANT GROWTH” (Bayer Aktiengesellschaft, priority 2019, published 2023).

Columns and labels:
AMARE [1] = test: Post-emergence herbicidal action against AMARE; format: in vivo, Amaranthus retroflexus; settings: visual rating about 3 weeks after treatment
Outline: (§1)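 Visual scoring, where 100% = dead and 0% = like untreated plants, was done about 3 weeks after treatment. Dose was 1280 or 320 g/ha, delivered as aqueous WP/EC suspension or emulsion with 0.5% additive at 600 L/ha. Pot-grown weeds in sandy loam were treated post-emergence at one leaf, 2-3 weeks post-sowing.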

ECHCG [2] = test: Post-emergence herbicidal action against ECHCG; format: in vivo, Echinochloa crus-galli; settings: 1280 g/ha, post-emergence at one-leaf stage, rated visually after about 3 weeks vs untreated controls
Outline: as §1

STEME [3] = test: Pre-emergence herbicidal action against STEME; format: in vivo, Stellaria media; settings: scored visually after about 3 weeks vs untreated controls
Outline: (§2)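 Pre-emergence, sandy loam, pots doubly sown. WP/EC formulations + 0.5% additive, 600 L/ha water, sprayed on soil surface; 1280 or 320 g/ha. Greenhouse ~3 wk; visual % effect vs untreated.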

VERPE [4] = test: Pre-emergence herbicidal action against VERPE; format: in vivo, Veronica persica; settings: 320 g/ha, scored visually after about 3 weeks vs untreated controls
Outline: as §2

CYPES = test: Pre-emergence herbicidal action against CYPES; format: in vivo, Cyperus esculentus; settings: scored visually after about 3 weeks vs untreated controls, 100% = plants have died, 0% = like control plants
From the text: (§3) Seeds of mono- and dicotyledonous weed plants are placed in plastic pots in sandy loam soil (doubly sown with one species each of mono- or dicotyledonous weed plants per pot) and covered with soil. The compounds of the invention, formulated in the form of wettable powders (WP) or as emulsion concentrates (EC), are then applied onto the surface of the covering soil as aqueous suspension or emulsion with addition of 0.5% additive at a water application rate equivalent to 600 litres per hectare. After the treatment, the pots are placed in a greenhouse and kept under good growth conditions for the trial plants. After about 3 weeks, the effect of the preparations is scored visually in comparison with untreated controls as percentages. For example, 100% activity=the plants have died, 0% activity=like control plants. [table] Tables 4.1-4.15 below show the effects of selected compounds of the general formula (I) according to Tables 1 to 3 on various harmful plants at an application rate corresponding to 1280 or 320 g/ha, which have been obtained by the aforementioned experimental method.

ALOMY [5] = test: Post-emergence herbicidal action against ALOMY; format: in vivo, Alopecurus myosuroides; settings: 1280 g/ha, post-emergence at one-leaf stage, rated visually after about 3 weeks vs untreated controls
Protocol: (§4) [table] Seeds of mono- and dicotyledonous weed plants are placed in plastic pots in sandy loam soil (twin sowing with one species each of mono- or dicotyledonous weed plants per pot), covered with soil and cultivated in a greenhouse under controlled growth conditions. 2 to 3 weeks after sowing, the test plants are treated at the one-leaf stage. The compounds of the invention, formulated in the form of wettable powders (WP) or as emulsion concentrates (EC), are applied to the green parts of the plants as aqueous suspension or emulsion with addition of 0.5% additive at a water application rate equivalent to 600 litres per hectare. After the test plants have been kept in the greenhouse under optimum growth conditions for about 3 weeks, the activity of the preparations is rated visually in comparison to untreated controls. For example, 100% activity=the plants have died, 0% activity=like control plants. Tables 5.1-5.16 below show the effects of selected compounds of the general formula (I) according to Tables 1 to 3 on various harmful plants at an application rate corresponding to 1280 or 320 g/ha, which have been obtained by the aforementioned experimental method.

harmful plants [6] = test: Pre-emergence herbicidal action, summary of Tables 4.1-4.15; format: in vivo; settings: result in words
From the text: as §3, with “plants.” for “plants. [table] Tables 4.1-4.15 below show the effects of selected compounds of the general formula (I) according to Tables 1 to 3 on various harmful plants at an application rate corresponding to 1280 or 320 g/ha, which have been obtained by the aforementioned experimental method.”
Tables 4.1-4.15 below show the effects of selected compounds of the general formula (I) according to Tables 1 to 3 on various harmful plants at an application rate corresponding to 1280 or 320 g/ha, which have been obtained by the aforementioned experimental method.
For example, compounds no. I-008, I-056, I-057, I-061, I-067, I-070 and I-072 applied by the pre-emergence method have very good action (80% to 100% herbicidal action) against harmful plants such as Alopecurus myosuroides, Amaranthus retroflexus, Matricaria inodora, Polygonum convolvulus, Setaria viridis and Stellaria media at an application rate of 1.28 kg of active substance or less per hectare.

harmful plants [7] = test: Post-emergence herbicidal action, summary of Tables 5.1-5.16; format: in vivo; settings: result in words
Protocol: as §4, with “Seeds” for “[table] Seeds”, “method. As the results from Tables 5.1-5.16 show, compounds of the invention have good herbicidal post-emergence efficacy against a broad spectrum of weed grasses and weeds. […] For example, compounds Nos. I-002, I-006, I-022, I-056 and I-072 applied by the post-emergence method have very good herbicidal action (80% to 100% herbicidal action) against harmful plants such as Alopecurus myosuroides, Amaranthus retroflexus, Matricaria inodora, Setaria viridis, Pharbitis purpurea and Stellaria media at an application rate of 1.28 kg of active substance or less per hectare.” for “method.”

STEME [8] = test: Post-emergence herbicidal action against STEME; format: in vivo, Stellaria media; settings: visual rating about 3 weeks after treatment
Outline: as §1

VIOTR [9] = test: Pre-emergence herbicidal action against VIOTR; format: in vivo, Viola tricolor; settings: 1280 g/ha, scored visually after about 3 weeks vs untreated controls
From the text: as §3

AMARE [10] = test: Pre-emergence herbicidal action against AMARE; format: in vivo, Amaranthus retroflexus; settings: scored visually after about 3 weeks vs untreated controls; for Pre-emergence action at 320 g/ha against AMARE in %: 100% = plants have died, 0% = like control plants; for Pre-emergence action against AMARE in %: 1280 g/ha
Outline: as §2

MATIN [11] = test: Pre-emergence herbicidal action against MATIN; format: in vivo, Matricaria inodora; settings: 1280 g/ha, scored visually after about 3 weeks vs untreated controls
From the text: as §3

MATIN [12] = test: Post-emergence herbicidal action against MATIN; format: in vivo, Matricaria inodora; settings: visual rating about 3 weeks after treatment
Outline: as §1

PHBPU = test: Post-emergence herbicidal action against PHBPU; format: in vivo, Pharbitis purpurea; settings: 320 g/ha, visual rating about 3 weeks after treatment
Outline: as §1

SETVI [13] = test: Post-emergence herbicidal action against SETVI; format: in vivo, Setaria viridis; settings: 1280 g/ha, post-emergence at one-leaf stage, rated visually after about 3 weeks vs untreated controls
Outline: as §1

VIOTR [14] = test: Post-emergence herbicidal action against VIOTR; format: in vivo, Viola tricolor; settings: 320 g/ha, visual rating about 3 weeks after treatment
Outline: as §1

POLCO [15] = test: Pre-emergence herbicidal action against POLCO; format: in vivo, Polygonum convolvulus; settings: 320 g/ha, scored visually after about 3 weeks vs untreated controls
Outline: as §2

VERPE [16] = test: Post-emergence herbicidal action against VERPE; format: in vivo, Veronica persica; settings: 320 g/ha, visual rating about 3 weeks after treatment
Outline: as §1

ECHCG [17] = test: Pre-emergence herbicidal action against ECHCG; format: in vivo, Echinochloa crus-galli; settings: scored visually after about 3 weeks vs untreated controls, 100% = plants have died, 0% = like control plants
Outline: as §2

POLCO [18] = test: Post-emergence herbicidal action against POLCO; format: in vivo, Polygonum convolvulus; settings: 320 g/ha, visual rating about 3 weeks after treatment
Outline: as §1

SETVI [19] = test: Pre-emergence herbicidal action against SETVI; format: in vivo, Setaria viridis; settings: 1280 g/ha, scored visually after about 3 weeks vs untreated controls
Outline: as §2

ALOMY [20] = test: Pre-emergence herbicidal action against ALOMY; format: in vivo, Alopecurus myosuroides; settings: scored visually after about 3 weeks vs untreated controls, 100% = plants have died, 0% = like control plants
From the text: as §3

SMILES	Post-emergence action against AMARE in % (AMARE [1]; 320 g/ha) [%]	Post-emergence action against AMARE in % (AMARE [1]; 1280 g/ha) [%]	Post-emergence action against ECHCG in % (ECHCG [2]) [%]	Pre-emergence action against STEME in % (STEME [3]; 1280 g/ha) [%]	Pre-emergence action against VERPE in % (VERPE [4]) [%]	Pre-emergence action at 1280 g/ha against CYPES in % (CYPES) [%]	Post-emergence action against ALOMY in % (ALOMY [5]) [%]	herbicidal efficacy against harmful plants in the case of pre-emergence treatment (harmful plants [6])	herbicidal efficacy against harmful plants when applied post-emergence (harmful plants [7])	Post-emergence action against STEME in % (STEME [8]; 320 g/ha) [%]	Post-emergence action against STEME in % (STEME [8]; 1280 g/ha) [%]	Pre-emergence action at 320 g/ha against AMARE in % (AMARE [10]) [%]	Pre-emergence action against AMARE in % (AMARE [10]) [%]	Pre-emergence action against MATIN in % (MATIN [11]) [%]	Post-emergence action against MATIN in % (MATIN [12]; 1280 g/ha) [%]	Post-emergence action against PHBPU in % (PHBPU) [%]	Post-emergence action against SETVI in % (SETVI [13]) [%]	Pre-emergence action against STEME in % (STEME [3]; 320 g/ha) [%]	Post-emergence action against VERPE in % (VERPE [16]) [%]	Pre-emergence action at 1280 g/ha against ALOMY in % (ALOMY [20]) [%]	also measured
COC(=O)COc1nn(-c2ccccc2)c(-c2cccc(F)c2)c1C#N [I-021]	80	80	80	90	90	100	80	good herbicidal efficacy	very good herbicidal efficacy	80	80	100	100	90	80	80	–	–	–	–	Pre-emergence action against VIOTR in % (VIOTR [9]): 90%
COC(=O)COc1nn(-c2ccccc2F)c(-c2ccccc2)c1Br [I-054]	90	100	90	100	100	–	–	–	very good herbicidal efficacy	90	100	100	100	–	100	100	100	100	80	–	Post-emergence action against VIOTR in % (VIOTR [14]): 90%; Pre-emergence action against POLCO in % (POLCO [15]): 100%; Pre-emergence action at 1280 g/ha against ECHCG in % (ECHCG [17]): 90%; Post-emergence action against POLCO in % (POLCO [18]): 80%; Pre-emergence action against SETVI in % (SETVI [19]): 90%; Post-emergence action against MATIN in % (MATIN [12]; 320 g/ha): 90%
COC(=O)COc1nn(-c2ccccc2)c(-c2cccc(F)c2)c1Cl [I-002]	80	90	80	100	100	–	80	good herbicidal efficacy	very good herbicidal efficacy	80	90	100	100	100	80	80	80	80	80	80	–
COC(=O)COc1nn(-c2ccc(F)cc2)c(-c2ccc(F)cc2)c1Cl [I-006]	–	100	–	100	–	100	80	–	very good herbicidal efficacy	–	80	80	100	–	80	80	90	–	–	–	–
COC(=O)COc1nn(-c2ccccc2)c(-c2ccc(F)cc2)c1Cl [I-008]	80	80	–	100	90	–	–	good herbicidal efficacy	–	90	90	100	100	90	90	–	–	–	90	100	Pre-emergence action against POLCO in % (POLCO [15]): 80%; Post-emergence action against POLCO in % (POLCO [18]): 80%; Pre-emergence action against SETVI in % (SETVI [19]): 90%; Post-emergence action against MATIN in % (MATIN [12]; 320 g/ha): 90%
COC(=O)COc1nn(-c2ccc(Cl)cc2)c(-c2ccc(F)cc2)c1Cl [I-007]	–	80	–	90	–	–	–	–	–	–	–	80	100	–	–	–	–	–	90	80	–
